Laboratory results as given in ChEMBL document CHEMBL1157495 (Bioorg Med Chem Lett, 2008).

Columns and labels:
Plasmodium falciparum = test: Antiplasmodial activity against chloroquine-resistant Plasmodium falciparum W2; assay type: functional, organism-based
Plasmodium berghei [1] = test: (§1) Antimalarial activity after 10 days against Plasmodium berghei ANKA infected Anopheles stephensi at 10 uM/kg; assay type: functional
Plasmodium berghei [2] = test: (§2) Antimalarial activity after 10 days against Plasmodium berghei ANKA infected Anopheles stephensi at 50 uM/kg; assay type: functional
Plasmodium berghei [3] = test: as §1; assay type: functional; remark: listed apart in the source
Plasmodium berghei [4] = test: as §2; assay type: functional; remark: listed apart in the source

SMILES | IC50 (Plasmodium falciparum) | Activity (Plasmodium berghei [1]) | Activity (Plasmodium berghei [2]) | Activity (Plasmodium berghei [3]) | Activity (Plasmodium berghei [4])
COc1cc(NC(C)CCCN2C(=O)[C@H](C)NC2(C)C)c2ncccc2c1 (stereo partly drawn) | > 50 µM |  |  |  | 
COc1cc(NC(C)CCCN2C(=O)CN(C(=O)CN)C2(C)C)c2ncccc2c1 (stereo not drawn) |  | 1.08 | 0.79 | 42% | 
COc1cc(NC(C)CCCN2C(=O)CN(C(=O)[C@@H](N)C(C)C)C2(C)C)c2ncccc2c1 (stereo partly drawn) | 7.9 µM |  |  |  | 
COc1cc(NC(C)CCCN2C(=O)[C@H](C)N(C(=O)CN)C2(C)C)c2ncccc2c1 (stereo partly drawn) | 5.5 µM |  |  |  | 
COc1cc(NC(C)CCCN2C(=O)CN(C(=O)[C@@H](N)CCSC)C2(C)C)c2ncccc2c1 (stereo partly drawn) | 12 µM |  |  |  | 
COc1cc(NC(C)CCCN2C(=O)CN(C(=O)[C@@H](N)CC(C)C)C2(C)C)c2ncccc2c1 (stereo partly drawn) | 6.3 µM |  |  |  | 
COc1cc(NC(C)CCCN2C(=O)CN(C(=O)[C@H](C)N)C2(C)C)c2ncccc2c1 (stereo partly drawn) | 8 µM | 9.71 | 1.34 | 67.9% | 40.1%
COc1cc(NC(C)CCCN2C(=O)[C@H](CCSC)N(C(=O)CN)C2(C)C)c2ncccc2c1 (stereo partly drawn) | 3.3 µM |  |  |  | 
COc1cc(NC(C)CCCN)c2ncccc2c1 (stereo not drawn) [PRIMAQUINE] |  | 2 | 0.95 | 41.7% | 42.9%
